Several values for one entry are separate records, joined by “and”; a condition that tells them apart may be missing. Equal values may be shown once.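 Five compound concentrations were applied to cells in 96-well plates for 48 hours; endpoints were derived by simple linear interpolation of the resulting dose-response curve. The concentration for 50% growth inhibition is given as GI50. TGI marks complete inhibition of growth.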
Experiments:
Assay in all cases: NCI tumour cell line growth inhibition, 48 h
SK-MEL-5 melanoma = system: SK-MEL-5 melanoma
HCT-116 colon = system: HCT-116 colon
SNB-19 CNS = system: SNB-19 CNS
HT29 colon = system: HT29 colon
SF-268 CNS = system: SF-268 CNS
OVCAR-4 ovarian = system: OVCAR-4 ovarian
SNB-75 CNS = system: SNB-75 CNS
COLO 205 colon = system: COLO 205 colon
IGROV1 ovarian = system: IGROV1 ovarian
HL-60(TB) leukemia = system: HL-60(TB) leukemia

SMILES	TGI (SK-MEL-5 melanoma)	TGI (HCT-116 colon)	TGI (SNB-19 CNS)	TGI (HT29 colon)	TGI (SF-268 CNS)	TGI (OVCAR-4 ovarian)	TGI (SNB-75 CNS)	TGI (COLO 205 colon)	TGI (IGROV1 ovarian)	TGI (HL-60(TB) leukemia)	GI50 (SK-MEL-5 melanoma)	GI50 (HCT-116 colon)	GI50 (SNB-19 CNS)	GI50 (HL-60(TB) leukemia)	GI50 (HT29 colon)	GI50 (SF-268 CNS)	GI50 (OVCAR-4 ovarian)	GI50 (SNB-75 CNS)	GI50 (COLO 205 colon)	GI50 (IGROV1 ovarian)
NCCCOCC(=O)O	> 100 µM	> 100 µM	> 100 µM	> 100 µM	> 100 µM	> 100 µM	> 100 µM	> 100 µM	> 100 µM											
C=CC1[C@H]2COC(C)(C)O[C@@H]2CC(=O)C1(C)C (stereo partly specified)		> 100 µM	> 100 µM	> 100 µM	> 100 µM	> 100 µM	> 100 µM	> 100 µM		> 100 µM										
O=C1C=CC=CC2CC=C[C@@H](O)C12 (stereo partly specified)	38 µM	27.7 µM	54.3 µM	37.7 µM	54.5 µM	> 100 µM		39.5 µM	> 100 µM	37 µM										
O=C(c1ccc2ccccc2c1)c1c(C(F)(F)F)n([O-])c2cc(F)c(F)cc2[n+]1=O	18.3 µM	3.02 µM	4.1 µM	5.29 µM	19.5 µM	27.2 µM	15 µM			3.55 µM	4.84 µM	1.5 µM	2 µM	1.37 µM	2.34 µM	3.36 µM	13 µM	4.29 µM		
COc1cc(/C=C2\CCC/C(=C\c3cc(OC)c(O)c(OC)c3)C2=O)cc(OC)c1O	75 µM and 19.6 µM		75 µM and > 100 µM	38 µM and > 100 µM	> 100 µM	75 µM and > 100 µM	> 100 µM	73.8 µM and 32.8 µM	3.89 µM		2.83 µM	2.56 µM	3.61 µM		3.8 µM		8.24 µM			
NC1CCCCC1.[O]=[Ge].[O]=[Ge].[O]=[Ge][OH].[O]=[Ge][OH]	> 100 µM	> 100 µM	> 100 µM	> 100 µM	> 100 µM	> 100 µM	> 100 µM		> 100 µM	> 100 µM										
COc1cc(/C=C\c2ccc(C)cc2)cc(OC)c1OC					> 63.3 µM	46.5 µM		0.144 µM	> 100 µM	0.0159 µM						< 0.0136 µM		0.0149 µM		
OC1c2ccccc2C2(O)C1C(c1ccccc1)C(c1ccccc1)C2(O)c1ccccc1 (stereo unspecified)	21.7 µM		> 100 µM	22.8 µM	68.8 µM	> 100 µM	46.2 µM	30.7 µM	82.9 µM	31.9 µM										
O=Nc1c(-c2c(O)[nH]c3ccc([N+](=O)[O-])cc23)[nH]c2ccc(O)cc12	0.414 µM		> 100 µM	> 100 µM	> 100 µM	> 100 µM	3.64 µM	40.5 µM	> 100 µM	1.04 µM	0.189 µM		0.465 µM	0.312 µM	12.4 µM	0.474 µM	0.43 µM	0.0264 µM	5.92 µM	0.312 µM
Cn1nc(-c2ccccc2)c(C(=O)/C=C/c2ccc(F)cc2)c(N2CCCCC2)c1=O	19.7 µM	11.5 µM	55.4 µM	20.2 µM	37 µM			14.1 µM	38.2 µM	3.28 µM										
CCCCc1c2c(nc3c1CCc1cc4cc5c(nc4nc1-3)-c1nc3c(c(CCCC)c1CC5)CCCC3)CCCC2		> 100 µM	> 100 µM	31.5 µM	> 100 µM		> 100 µM	> 100 µM	> 100 µM	> 100 µM										
O=C(O)COc1ccc(O)c2c1C(=O)CCCC2=O	> 100 µM	> 100 µM	> 100 µM	> 100 µM	> 100 µM	> 100 µM		> 100 µM	> 100 µM	> 100 µM										
O=C(O)[C@@H]1[C@H](C(=O)O)[C@H](C(=O)O)C[C@@H]1C(=O)O	> 100 µM	> 100 µM	> 100 µM	> 100 µM	> 100 µM	> 100 µM	> 100 µM	> 100 µM	> 100 µM											
COc1cc2c(c(OC)c1OC)-c1ccc(N)c(=O)cc1[C@@H](NC(C)=O)CC2		> 100 µM	> 100 µM	0.0688 µM	> 100 µM	> 100 µM		0.0386 µM				0.0168 µM	0.914 µM	0.0171 µM	< 0.0159 µM	0.0339 µM	0.0542 µM		0.012 µM	0.0359 µM

Reference: PubChem BioAssay (NCI)
